Measurements as given in patent publication US20100286149A1, “NOVEL BENZAMIDE DERIVATIVES USEFUL AS POTASSIUM CHANNEL MODULATORS” (priority 2007, published 2010).
pEC50: −log10 of the molar value.

What was measured:
[1] = target: T1, BK channels heterologously expressed in Xenopus laevis oocytes (Homo sapiens, UniProt Q12791); assay: BK channel opening activity, two-electrode voltage clamp in Xenopus laevis oocytes; assay type: cell-based
T1 construct: expressed in transfected cells; host or cells: Xenopus laevis oocytes
T1 sequence (Q12791 whole entry): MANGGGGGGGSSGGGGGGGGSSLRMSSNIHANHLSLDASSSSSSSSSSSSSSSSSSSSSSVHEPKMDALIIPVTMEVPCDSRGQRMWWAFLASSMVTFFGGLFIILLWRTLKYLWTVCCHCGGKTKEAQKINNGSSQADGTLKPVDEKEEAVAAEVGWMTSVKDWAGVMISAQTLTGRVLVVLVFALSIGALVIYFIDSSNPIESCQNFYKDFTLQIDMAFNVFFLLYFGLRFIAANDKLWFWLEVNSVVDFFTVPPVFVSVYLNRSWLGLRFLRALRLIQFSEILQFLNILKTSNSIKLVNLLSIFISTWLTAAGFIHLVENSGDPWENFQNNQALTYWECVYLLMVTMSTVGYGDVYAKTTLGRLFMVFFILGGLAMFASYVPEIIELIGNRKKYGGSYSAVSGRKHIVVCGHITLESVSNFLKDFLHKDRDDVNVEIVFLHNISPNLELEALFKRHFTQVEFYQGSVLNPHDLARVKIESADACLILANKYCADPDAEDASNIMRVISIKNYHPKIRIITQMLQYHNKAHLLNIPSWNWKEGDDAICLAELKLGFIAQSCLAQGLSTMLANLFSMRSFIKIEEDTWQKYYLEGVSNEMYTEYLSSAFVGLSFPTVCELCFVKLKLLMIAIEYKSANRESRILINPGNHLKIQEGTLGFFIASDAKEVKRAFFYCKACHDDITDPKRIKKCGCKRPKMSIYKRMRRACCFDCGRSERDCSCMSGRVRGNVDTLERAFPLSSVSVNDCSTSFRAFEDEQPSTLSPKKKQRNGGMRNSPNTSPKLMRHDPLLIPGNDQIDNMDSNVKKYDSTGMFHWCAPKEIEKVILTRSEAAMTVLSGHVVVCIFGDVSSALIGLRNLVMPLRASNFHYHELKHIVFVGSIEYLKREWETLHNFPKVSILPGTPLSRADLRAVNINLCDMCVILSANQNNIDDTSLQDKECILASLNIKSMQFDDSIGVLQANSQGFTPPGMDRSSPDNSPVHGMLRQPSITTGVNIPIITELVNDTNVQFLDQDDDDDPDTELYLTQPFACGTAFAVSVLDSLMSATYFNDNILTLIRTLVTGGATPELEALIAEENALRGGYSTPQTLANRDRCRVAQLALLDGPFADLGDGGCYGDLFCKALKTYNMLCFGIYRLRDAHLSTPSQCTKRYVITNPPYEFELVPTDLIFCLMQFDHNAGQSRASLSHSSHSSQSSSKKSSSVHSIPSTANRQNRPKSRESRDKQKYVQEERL
Protocol: In this example the BK channel opening activity of Compound 12 (i.e. N-[5-Chloro-2-(1H-tetrazol-5-yl)-phenyl]-4-dipropylsulfamoyl-benzamide) is determined using BK channels heterologously expressed in Xenopus laevis oocytes.
The electrical current through the BK channel was measured using conventional two-electrode voltage clamp. BK currents were activated by repeating ramp protocols. In brief, the membrane potential was continuously changed from −120 mV to +120 mV within a 2 s period. The threshold for BK activation is approximately +30 mV under control conditions. Compounds were applied for 100 s during which the ramp protocol was repeated 10 times with 10 s intervals. In between the ramp protocols the membrane potential was clamped at −80 mV. The first three compound applications were control blanks where the current level is allowed to stabilize.
In order to evaluate the ability of the compounds to shift the BK activation curve towards lower membrane potentials, the BK current was transformed into conductance by using Ohm's law g=I/(Ememb−Erev), where g is the conductance, I is the current, Ememb is the membrane potential and Erev is the reversal potential. The extracellular solution for these experiments contained 2.5 mM K+ and the intracellular K+ concentration of an oocyte was estimated to be 100 mM. Under those conditions, Nernst equation predicts a reversal potential of Erev=−93.2 mV. The control conductance level at a membrane potential of +100 mV was calculated, and the compound effect was evaluated as the potential difference, ΔV, to the membrane potential at which the same conductance level was obtained in the presence of compound.
The concentration response curve for this potential difference was fitted to the sigmoidal logistic equation: ΔV=ΔVmax/(1+(EC50/[compound])^n), where ΔVmax represents the maximal left shift of the BK activation curve, EC50 is the concentration causing a half maximal response, and n is the slope coefficient.

Row | melting point [°C] | ΔVmax, maximal left shift of the BK activation curve ([1]; BKCa channels expressed in Xenopus oocytes, 0.01-31.6 μM, sigmoidal logistic fit) [mV] | pEC50 ([1]; BKCa channels expressed in Xenopus oocytes, ramp −120 to +120 mV, 0.01-31.6 μM, ΔV at control conductance level of +100 mV, sigmoidal logistic fit, read-out: EC50 for the left-shift of the BK activation curve (ΔV)) | SMILES | BK current level at depolarizing potentials ([1]; increasing concentrations (0.01-31.6 μM) applied, 100 s each, ramp protocol)
1 | 247 to 249 |  |  | O=C(Nc1cc(Cl)ccc1-c1nnn[nH]1)c1cc(C(F)(F)F)cc(C(F)(F)F)c1 [Compound 4, N-[5-Chloro-2-(1H-tetrazol-5-yl)-phenyl]-3,5-bis-trifluoromethyl-benzamide] | 
2 | 221 to 225 |  |  | O=C(Nc1cc(Cl)ccc1-c1nnn[nH]1)c1ccc2ccccc2c1O [Compound 8, 1-Hydroxy-naphthalene-2-carboxylic acid [5-chloro-2-(1H-tetrazol-5-yl)-phenyl]-amide] | 
3 |  | −110 | 5.89 | CCCN(CCC)S(=O)(=O)c1ccc(C(=O)Nc2cc(Cl)ccc2-c2nnn[nH]2)cc1 [Compound 12, N-[5-Chloro-2-(1H-tetrazol-5-yl)-phenyl]-4-dipropylsulfamoyl-benzamide] | marked increase in the current level at depolarizing potentials
